Measured values from patent publication US11999739B2, “Antimicrobials methods of making and using the same” (BIOVERSYS AG, priority 2016, dated 2024).

Key:
[1] = system: Staphylococcus aureus (S. aureus) 11540 strain; experiment: Standard microdilution MIC assay, S. aureus; format: cell-based
Method: (§1) The in vitro activity of the compounds of the present disclosure can be determined. Antimicrobial testing is typically performed to determine the minimum inhibitory concentration (MIC). Minimum inhibitory concentrations (MICs) are determined by the microdilution method in a final volume of 100 μl according to protocols outlined by The Clinical and Laboratory Standards Institute (CLSI). Performance standards for reference strains are assessed within the same experimental design to maintain quality control. See, for example, Clinical Laboratory Standards Institute: Methods for dilution antimicrobial susceptibility tests for bacteria that grow aerobically M7-A8. Approved Standard-Eighth Edition. Wayne, PA: CLSI; December 2008; and Clinical Laboratory Standards Institute: Performance Standards for Antimicrobial Susceptibility Testing M100-S20; Approved Standard-Twentieth Edition. Wayne, PA: CLSI; June 2010.
(§2) The compounds of the present disclosure were tested for antimicrobial activity. The Compounds 1-293 were run against Escherichia coli (E co/i) strain ATCC25922 and against Staphylococcus aureus (S. aureus) 11540 strain using a standard microdilution assay to determine minimum inhibitory concentrations (MICs). […] It will be recognized by one skilled in the art that the compounds can be assessed against other bacterial organisms and that the presentation of data for activity against Escherichia coli and Staphylococcus aureus are illustrative and in no way is intended to limit the scope of the present disclosure. The compounds of the present disclosure can be assayed against a range of other microorganisms depending upon the performance activity desired to be gathered. Furthermore, the “+” and “−” representation and the selection of a cutoff value of 16 micrograms/mL is also illustrative and in no way is intended to limit the scope of the present disclosure.

[2] = system: Escherichia coli strain ATCC25922; experiment: Standard microdilution MIC assay, E. coli; format: cell-based
Method: as §1, §2

Row | SMILES | MIC [1] [µg/mL] | MIC [2] [µg/mL]
1 | C=C[C@@H](CCNC(=N)CCOCC)NCc1ccc(-n2cc3cc(-c4cc(CCC[C@H](C)N)cc(Cl)c4F)[nH]c3nc2=O)cc1 [Compound 52] | ≤ 16 | ≤ 16
2 | C=C[C@@H](CCNC(=N)COC)NCc1ccc(-n2cc3cc(-c4cc(CCC[C@H](C)N)cc(Cl)c4F)[nH]c3nc2=O)cc1 [Compound 53] | ≤ 16 | ≤ 16
3 | CC(=N)NCC[C@@H]1COC[C@@H](c2ccc(-n3cc4cc(-c5cc(CCC[C@@H](N)CO)cc(Cl)c5F)[nH]c4nc3=O)cc2)N1 [Compound 54] | ≤ 16 | ≤ 16
4 | N=C(CF)NCC[C@@H]1COC[C@@H](c2ccc(-n3cc4cc(-c5cc(CCC[C@@H](N)CO)cc(Cl)c5F)[nH]c4nc3=O)cc2)N1 [Compound 55] | ≤ 16 | ≤ 16
5 | C=C[C@@H](N)CCCc1cc(Cl)c(F)c(-c2cc3cn(-c4ccc([C@@H]5COC[C@@H](CCNC(C)=N)N5)cc4)c(=O)nc3[nH]2)c1 [Compound 56] | ≤ 16 | ≤ 16
6 | C=C[C@@H](N)CCCc1cc(Cl)c(F)c(-c2cc3cn(-c4ccc([C@@H]5COC[C@@H](CCNC(=N)CF)N5)cc4)c(=O)nc3[nH]2)c1 [Compound 57] | ≤ 16 | ≤ 16
7 | C=C[C@@H](CCNC(=N)CC(F)(F)F)NCc1ccc(-n2cc3cc(-c4cc(CCC[C@H](C)N)cc(Cl)c4F)[nH]c3nc2=O)cc1 [Compound 58] | ≤ 16 | ≤ 16
8 | C=C[C@@H](CCNC(=N)CSC)NCc1ccc(-n2cc3cc(-c4cc(CCC[C@H](C)N)cc(Cl)c4F)[nH]c3nc2=O)cc1 [Compound 59] | ≤ 16 | ≤ 16
9 | C=C[C@@H](CCNC(C)=N)NC(=O)c1ccc(-n2cc3cc(-c4cc(CCC[C@H](C)N)cc(Cl)c4F)[nH]c3nc2=O)cc1 [Compound 60] | ≤ 16 | ≤ 16
10 | C[C@H](N)CCCc1cc(Cl)c(F)c(-c2cc3cn(-c4ccc(CN[C@@H](CO)CCNC(=N)CF)cc4)c(=O)nc3[nH]2)c1 [Compound 61] | ≤ 16 | ≤ 16
11 | CC(=N)NCC[C@@H]1CCC[C@@H](c2ccc(-n3cc4cc(-c5cc(CCC[C@@H](N)C(F)(F)F)cc(Cl)c5F)[nH]c4nc3=O)cc2)N1 [Compound 63] | ≤ 16 | ≤ 16
12 | N=C(CF)NCC[C@@H]1CCC[C@@H](c2ccc(-n3cc4cc(-c5cc(CCC[C@@H](N)C(F)(F)F)cc(Cl)c5F)[nH]c4nc3=O)cc2)N1 [Compound 64] | ≤ 16 | ≤ 16
13 | CC(=N)NCCCNCc1ccc(-n2cc3cc(-c4cc(CCCC(C)(C)N)cc(Cl)c4F)[nH]c3nc2=O)cc1F [Compound 65] | ≤ 16 | ≤ 16
14 | CC(=N)NCC[C@@H]1COC[C@@H](c2ccc(-n3cc4cc(-c5cc(CCC[C@@H](N)C(F)(F)F)cc(Cl)c5F)[nH]c4nc3=O)cc2)N1 [Compound 66] | > 16 | > 16
15 | N=C(CF)NCC[C@@H]1COC[C@@H](c2ccc(-n3cc4cc(-c5cc(CCC[C@@H](N)C(F)(F)F)cc(Cl)c5F)[nH]c4nc3=O)cc2)N1 [Compound 67] | > 16 | > 16
16 | CC(=N)NCC[C@@H]1COC[C@@H](c2ccc(-n3cc4cc(-c5cc(CCCC(C)(C)N)cc(Cl)c5F)[nH]c4nc3=O)cc2)N1 [Compound 68] | ≤ 16 | ≤ 16
17 | CC(C)(N)CCCc1cc(Cl)c(F)c(-c2cc3cn(-c4ccc([C@@H]5COC[C@@H](CCNC(=N)CF)N5)cc4)c(=O)nc3[nH]2)c1 [Compound 69] | ≤ 16 | ≤ 16
18 | C=C[C@@H](N)CCCc1cc(Cl)c(F)c(-c2cc3cn(-c4ccc(CNCCCNC(C)=N)c(F)c4)c(=O)nc3[nH]2)c1 [Compound 70] | ≤ 16 | ≤ 16
19 | CC(=N)NCC[C@@H]1COC[C@@H](c2ccc(-n3cc4cc(-c5cc(CCC(C)(C)CN)cc(Cl)c5F)[nH]c4nc3=O)cc2)N1 [Compound 71] | ≤ 16 | ≤ 16
20 | CC(C)(CN)CCc1cc(Cl)c(F)c(-c2cc3cn(-c4ccc([C@@H]5COC[C@@H](CCNC(=N)CF)N5)cc4)c(=O)nc3[nH]2)c1 [Compound 72] | ≤ 16 | ≤ 16
21 | CC(=N)NCCCNCc1ccc(-n2cc3cc(-c4cc(CCC(C)(C)CN)cc(Cl)c4F)[nH]c3nc2=O)cc1F [Compound 73] | ≤ 16 | ≤ 16
22 | CC(C)(CN)CCc1cc(Cl)c(F)c(-c2cc3cn(-c4ccc(CNCCCNC(=N)CF)c(F)c4)c(=O)nc3[nH]2)c1 [Compound 74] | ≤ 16 | ≤ 16
23 | C[C@H](N)CCCc1cc(Cl)c(F)c(-c2cc3cn(-c4ccc([C@@H]5COC[C@@H](CCNC(=N)CF)N5)cc4)c(=O)nc3[nH]2)c1 [Compound 75] | ≤ 16 | ≤ 16

Row | SMILES | MIC [1] [µg/mL] | MIC [2] [µg/mL]
24 | CC(=N)NCCCNCc1ccc(-n2cc3cc(-c4cc(CCC[C@H](C)N)cc(Cl)c4F)[nH]c3nc2=O)cc1F [Compound 76] | ≤ 16 | ≤ 16
25 | C[C@H](N)CCCc1cc(Cl)c(F)c(-c2cc3cn(-c4ccc(CNCCCNC(=N)CF)c(F)c4)c(=O)nc3[nH]2)c1 [Compound 77] | ≤ 16 | ≤ 16
26 | CC(=N)NCC[C@@H]1CCC[C@@H](c2ccc(-n3cc4cc(-c5cc(CCC[C@@H](N)C6CC6)cc(Cl)c5F)[nH]c4nc3=O)cc2)N1 [Compound 78] | ≤ 16 | ≤ 16
27 | CC(=N)NCC[C@H](CO)NCc1ccc(-n2cc3cc(-c4cc(CCC[C@@H](N)C5CC5)cc(Cl)c4F)[nH]c3nc2=O)cc1 [Compound 79] | ≤ 16 | ≤ 16
28 | C=C[C@H](N)CCCc1cc(Cl)c(F)c(-c2cc3cn(-c4ccc([C@@H]5COC[C@@H](CCNC(C)=N)N5)cc4)c(=O)nc3[nH]2)c1 [Compound 80] | ≤ 16 | ≤ 16
29 | C=C[C@H](N)CCCc1cc(Cl)c(F)c(-c2cc3cn(-c4ccc([C@@H]5COC[C@@H](CCNC(=N)CF)N5)cc4)c(=O)nc3[nH]2)c1 [Compound 81] | ≤ 16 | ≤ 16
30 | C=C[C@H](N)CCCc1cc(Cl)c(F)c(-c2cc3cn(-c4ccc([C@@H]5CCC[C@@H](CCNC(C)=N)N5)cc4)c(=O)nc3[nH]2)c1 [Compound 82] | ≤ 16 | ≤ 16
31 | C=C[C@H](N)CCCc1cc(Cl)c(F)c(-c2cc3cn(-c4ccc(CN[C@@H](CO)CCNC(C)=N)cc4)c(=O)nc3[nH]2)c1 [Compound 83] | ≤ 16 | ≤ 16
32 | N=C(CF)NCC[C@H](CO)NCc1ccc(-n2cc3cc(-c4cc(CCC[C@@H](N)CO)cc(Cl)c4F)[nH]c3nc2=O)cc1 [Compound 84] | ≤ 16 | ≤ 16
33 | N=C(CF)NCC[C@H](CO)NCc1ccc(-n2cc3cc(-c4cc(CCC[C@@H](N)C5CC5)cc(Cl)c4F)[nH]c3nc2=O)cc1 [Compound 85] | ≤ 16 | ≤ 16
34 | N=C(CF)NCC[C@@H]1CCC[C@@H](c2ccc(-n3cc4cc(-c5cc(CCC[C@@H](N)C6CC6)cc(Cl)c5F)[nH]c4nc3=O)cc2)N1 [Compound 86] | ≤ 16 | ≤ 16
35 | C=C[C@@H](CCNC(C)=N)NCc1ccc(-n2cc3cc(-c4cc(CCC[C@@H](N)C5CC5)cc(Cl)c4F)[nH]c3nc2=O)cc1 [Compound 87] | ≤ 16 | ≤ 16
36 | CSC[C@@H](CCNC(=N)CF)NCc1ccc(-n2cc3cc(-c4cc(CCC[C@H](C)N)cc(Cl)c4F)[nH]c3nc2=O)cc1 [Compound 88] | ≤ 16 | ≤ 16
37 | C=C[C@@H](CCNC(=N)CF)NCc1ccc(-n2cc3cc(-c4cc(CCC[C@@H](N)C5CC5)cc(Cl)c4F)[nH]c3nc2=O)cc1 [Compound 89] | ≤ 16 | ≤ 16
38 | CC(=N)NCC[C@@H]1CCC[C@@H](c2ccc(-n3cc4cc(-c5cc(CCC(F)(F)CN)cc(Cl)c5F)[nH]c4nc3=O)cc2)N1 [Compound 90] | ≤ 16 | ≤ 16
39 | CC(=N)NCC[C@H](CO)NCc1ccc(-n2cc3cc(-c4cc(CCC(F)(F)CN)cc(Cl)c4F)[nH]c3nc2=O)cc1 [Compound 91] | ≤ 16 | ≤ 16
40 | C=C[C@@H](N)CCCc1cc(Cl)c(F)c(-c2cc3cn(-c4ccc([C@H](C)NCCCNC(C)=N)c(F)c4)c(=O)nc3[nH]2)c1 [Compound 92] | ≤ 16 | ≤ 16
41 | CC(=N)NCCCN[C@@H](C)c1ccc(-n2cc3cc(-c4cc(CCC[C@H](C)N)cc(Cl)c4F)[nH]c3nc2=O)cc1F [Compound 93] | ≤ 16 | ≤ 16
42 | C[C@H](N)CCCc1cc(Cl)c(F)c(-c2cc3cn(-c4ccc([C@H](C)NCCCNC(=N)CF)c(F)c4)c(=O)nc3[nH]2)c1 [Compound 94] | ≤ 16 | ≤ 16
43 | CSC[C@@H](CCNC(C)=N)NCc1ccc(-n2cc3cc(-c4cc(CCC[C@H](C)N)cc(Cl)c4F)[nH]c3nc2=O)cc1 [Compound 95] | ≤ 16 | ≤ 16
44 | CC(=N)NCC[C@H](CO)N[C@@H](C)c1ccc(-n2cc3cc(-c4cc(CCC[C@H](C)N)cc(Cl)c4F)[nH]c3nc2=O)cc1 [Compound 96] | ≤ 16 | ≤ 16
45 | C[C@H](N)CCCc1cc(Cl)c(F)c(-c2cc3cn(-c4ccc([C@H](C)N[C@@H](CO)CCNC(=N)CF)cc4)c(=O)nc3[nH]2)c1 [Compound 97] | ≤ 16 | ≤ 16
